One may read the IC50 as the midpoint of a concentration-inhibition curve.

The target in one experiment is Mammalian DNA-PK (Homo sapiens, UniProt P78527). Put plainly: DNA-PK inhibition assay (ELISA of p53 Ser15 phosphorylation of GST-p53N66). The experiment is classed as biochemical, Mammalian (isolated from HeLa cell nuclear extract).
Conditions: not given
Here is the method: In order to assess the inhibitory action of the compounds against DNA-PK in vitro, the following assay was used to determine IC50 values.
To the assay mix, varying concentrations of inhibitor (in DMSO at a final concentration of 1%) were added. After 10 minutes of incubation, ATP was added to give a final concentration of […] along with a 30 mer double stranded DNA oligonucleotide (final concentraion of 0.5 ng/ml) to initiate the reaction. After 1 hour with shaking, 150 μl of phosphate buffered saline (PBS) was added to the reaction and 5 μl then transferred to a 96 well opaque white plate containing 45 μl of PBS per well where the GSTp53N66 substrate was allowed to bind to the wells for 1 hour. To detect the phosphorylation event on the serine 15 residue of p53 elicited by DNA-PK a p53 phosphoserine-15 antibody (Cell Signaling Technology) was used in a basic ELISA procedure. An anti-rabbit HRP conjugated secondary antibody (Pierce) was then employed in the ELISA before the addition of chemiluminescence reagent. (NEN Renaissance) to detect the signal as measured by chemiluminescent counting via a TopCount NXT (Packard).
The enzyme activity for each compound is then calculated using the following equation: […]
The results are discussed below as IC50 values (the concentration at which 50% of the enzyme activity is inhibited). These are determined over a range of different concentrations, normally from 10 μM down to 0.001 μM. Such IC50 values are used as comparative values to identify increased compound potencies.
(In general: In an ELISA, binding on a coated surface is turned into a signal by an enzyme label.)
`O=c1cc(N2CCOCC2)oc2c(-c3cccc4c3sc3ccccc34)cccc12` [reference compound] had an IC50 of 10 to 12 nM.

Still in this experiment, the particulars now being: DNA-PK from HeLa nuclear extract; mean value; read-out: mean IC50.
Consider `CN(Cc1ccc(-c2cccc3c(=O)cc(N4CCOCC4)oc23)c2sc3ccccc3c12)Cc1ccnn1C` [4cc], for which the IC50 worked out at 321 nM. Regarding `CN(Cc1ccc(-c2cccc3c(=O)cc(N4CCOCC4)oc23)c2sc3ccccc3c12)Cc1cncn1C` [4cd], the half-inhibitory concentration (IC50) was 68.4 nM. Still for that read-out and setting: for `Cn1cccc1CNCc1ccc(-c2cccc3c(=O)cc(N4CCOCC4)oc23)c2sc3ccccc3c12` [4ce] the value was 291 nM; for `O=c1cc(N2CCOCC2)oc2c(-c3ccc(CNC4=NCCS4)c4c3sc3ccccc34)cccc12` [4cf], 174 nM; for `O=c1cc(N2CCOCC2)oc2c(-c3ccc(CNCc4ccncc4)c4c3sc3ccccc34)cccc12` [4cg], 139 nM. Same read-out and setting: for `O=c1cc(N2CCOCC2)oc2c(-c3ccc(CNCc4cccnc4)c4c3sc3ccccc34)cccc12` [4ch] the value was 98.5 nM.

For the compound `O=c1cc(N2CCOCC2)oc2c(-c3ccc(CNCc4ccccn4)c4c3sc3ccccc34)cccc12` [4ci], the concentration for half-maximal inhibition (IC50) was 177 nM. As for `O=c1cc(N2CCOCC2)oc2c(-c3ccc(CNCc4nccs4)c4c3sc3ccccc34)cccc12` [4cj], the IC50 came out at 193 nM. In the case of `CN1CCCC(NCc2ccc(-c3cccc4c(=O)cc(N5CCOCC5)oc34)c3sc4ccccc4c23)C1` (stereo not shown) [4ck], the half-maximal inhibitory concentration (IC50) came to 16.1 nM. As for `CN1CCC(NCc2ccc(-c3cccc4c(=O)cc(N5CCOCC5)oc34)c3sc4ccccc4c23)CC1` [4cl], the IC50 was 47.2 nM. For `N#Cc1cccn1NCc1ccc(-c2cccc3c(=O)cc(N4CCOCC4)oc23)c2sc3ccccc3c12` [4cm], the concentration for half-maximal inhibition (IC50) was 956 nM. Still for that read-out and setting: for `CCN1CCCC1CNCc1ccc(-c2cccc3c(=O)cc(N4CCOCC4)oc23)c2sc3ccccc3c12` (stereo not shown) [4cn] the value was 57.3 nM. On the same count and under the same terms, for `O=c1cc(N2CCOCC2)oc2c(-c3ccc(CNCCN4CCCCC4)c4c3sc3ccccc34)cccc12` [4co] the value was 62.5 nM; for `O=c1cc(N2CCOCC2)oc2c(-c3ccc(CNn4cnnc4)c4c3sc3ccccc34)cccc12` [4cp], 94.6 nM; for `NC1CCCN(Cc2ccc(-c3cccc4c(=O)cc(N5CCOCC5)oc34)c3sc4ccccc4c23)C1` (stereo not shown) [4cq], 36.1 nM. On the same count and under the same terms, to `O=c1cc(N2CCOCC2)oc2c(-c3ccc(CN4CCCNCC4)c4c3sc3ccccc34)cccc12` [4cr] belongs 6.67 nM.

As for `O=c1cc(N2CCOCC2)oc2c(-c3ccc(CN4CCCCC4)c4c3sc3ccccc34)cccc12` [4cs], the half-maximal inhibitory concentration (IC50) came out at 886 nM.

For `O=c1cc(N2CCOCC2)oc2c(-c3ccc(CNCCc4ccccc4)c4c3sc3ccccc34)cccc12` [4ct], the IC50 is 530 nM. Regarding `CN(C)CCNCc1ccc(-c2cccc3c(=O)cc(N4CCOCC4)oc23)c2sc3ccccc3c12` [4d], the half-maximal inhibitory concentration (IC50) is 12.6 nM. Same read-out and setting: for `C=CCNCc1ccc(-c2cccc3c(=O)cc(N4CCOCC4)oc23)c2sc3ccccc3c12` [4i] the value was 883 nM; for `O=c1cc(N2CCOCC2)oc2c(-c3ccc(CN4CCC(O)CC4)c4c3sc3ccccc34)cccc12` [4j], 508 nM; for `O=c1cc(N2CCOCC2)oc2c(-c3ccc(CN4CCNCC4)c4c3sc3ccccc34)cccc12` [4k], 7.14 nM. Turning to `O=c1cc(N2CCOCC2)oc2c(-c3ccc(CN4CCC(O)C4)c4c3sc3ccccc34)cccc12` (stereo not shown) [4l], the half-inhibitory concentration (IC50) turned out to be 30.3 nM. Regarding `CN(C)Cc1ccc(-c2cccc3c(=O)cc(N4CCOCC4)oc23)c2sc3ccccc3c12` [4m], the IC50 came to 293 nM. Turning to `COc1cccc(N2CCN(Cc3ccc(-c4cccc5c(=O)cc(N6CCOCC6)oc45)c4sc5ccccc5c34)CC2)c1` [4n], the 50% inhibitory concentration (IC50) is 975 nM.

For the compound `COc1ccc(N2CCN(Cc3ccc(-c4cccc5c(=O)cc(N6CCOCC6)oc45)c4sc5ccccc5c34)CC2C)cc1` (stereo not shown) [4o], the IC50 was 502 nM. As for `O=c1cc(N2CCOCC2)oc2c(-c3ccc(CN4CCC(CO)CC4)c4c3sc3ccccc34)cccc12` [4p], the concentration for half-maximal inhibition (IC50) turned out to be 96 nM. On the same count and under the same terms, for `C[C@@H]1CN(Cc2ccc(-c3cccc4c(=O)cc(N5CCOCC5)oc34)c3sc4ccccc4c23)C[C@H](C)O1` [4q] the value was 83.3 nM; for `O=c1cc(N2CCOCC2)oc2c(-c3ccc(CN4CCCC(CO)C4)c4c3sc3ccccc34)cccc12` (stereo not shown) [4r], 124 nM; for `CN(Cc1ccccc1)Cc1ccc(-c2cccc3c(=O)cc(N4CCOCC4)oc23)c2sc3ccccc3c12` [4s], 942 nM. Still for that read-out and setting: for `COCCN1CCN(Cc2ccc(-c3cccc4c(=O)cc(N5CCOCC5)oc34)c3sc4ccccc4c23)CC1` [4t] the value was 7.92 nM; for `CN(C)CCN(C)Cc1ccc(-c2cccc3c(=O)cc(N4CCOCC4)oc23)c2sc3ccccc3c12` [4u], 27.3 nM; for `CN1CCN(Cc2ccc(-c3cccc4c(=O)cc(N5CCOCC5)oc34)c3sc4ccccc4c23)CC1` [4v], 1.31 nM. For `O=c1cc(N2CCOCC2)oc2c(-c3ccc(CN4CCCCCC4)c4c3sc3ccccc34)cccc12` [4x], the 50% inhibitory concentration (IC50) is 1910 nM. The same measure, in the same setting: to `CCN(CC)Cc1ccc(-c2cccc3c(=O)cc(N4CCOCC4)oc23)c2sc3ccccc3c12` [4y] belongs 1960 nM.

As for `CC(=O)N1CCN(Cc2ccc(-c3cccc4c(=O)cc(N5CCOCC5)oc34)c3sc4ccccc4c23)CC1` [4z], the IC50 was found to be 77.9 nM.

The next experiment concerns HeLa cells. The experiment in a line: Survival Enhancement Ratio (clonogenic survival after 2 Gray irradiation). The experiment is classed as cell-based, human. The settings on record: example compound of WO 03/024949; concentration not given. The procedure: The Survival Enhancement Ratio (SER) is a ratio of the enhancement of cell kill elicited by the DNA-PK inhibitor after 2 Grays of irradiation compared to […]. DNA-PK inhibitors were used at a concentration of 25, 50, 100 and/or 500 nM. Radiation was delivered by a Faxitron 43855D machine at a dose rate of 1 Gy pre minute The SER at 2 Gray irradiation was calculated from the formula:
The degree of cell killing was monitored by a standard clonogenic survival assay. Briefly, tissue culture treated 6-well plates were seeded with HeLa cells at an appropriate concentration to give 100-200 colonies per well and returned to the incubator in order to allow the cells to attach. Four hours later, compound or vehicle control was added to the cells. The cells were then incubated for 1 hour in the presence of inhibitor prior to irradiation at 2 Gray using a Faxitron 43855D cabinet X-ray machine. The cells were then incubated for a further 16 hours before the media was replaced with fresh media in the absence of DNA-PK inhibitor. After 8 days, colonies formed were fixed and stained with Giemsa (Sigma, Poole, UK) and scored using an automated colony counter (Oxford Optronics Ltd, Oxford, UK). The data was calculated as described above.
For the compound `O=c1cc(N2CCOCC2)oc2c(-c3cccc4c3sc3ccccc34)cccc12` [reference compound], the SER was 1.3.

The target of another experiment is PI 3-kinase.
Assay: not given
The note with it: stated as the same as for DNA-PK; cited from earlier work.
Consider `O=c1cc(N2CCOCC2)oc2c(-c3ccccc3)cccc12` [LY294002], for which the IC50 is ~1000 nM.

In the next experiment the test system is cells.
Assay: not given
The note with it: Rosenzweig et al. 1999; cited from earlier work.
With `O=c1cc(N2CCOCC2)oc2c(-c3ccccc3)cccc12` [LY294002], the “sensitisation of cells to the effects of IR” value was “weakly sensitise cells to the effects of IR”.

Values taken from patent US20110130386A1, “DNA-PK INHIBITORS” (priority 2008, published 2011).
